# Test results as given in patent US20150080234A1, “Cell Patterning” (priority 2013, published 2015).
# Experiments:
# cell motility = conditions: cited from earlier work
# GHOST cells = assay: cell pattern maintenance / cell migration inhibition assay (media additives and hydrogels); type: cell-based
# Procedure: One significant advantage afforded by WAP is the ability to an addressable link with stimuli with delayed signal development in cells, such as infection, proliferation, or migration. For implementation of the nano-neutralization assay, a technique for preventing pattern disruption was developed over time due to proliferation and migration of GHOST cells over the course of infection signal development. The effect of several media additives and hydrogels for the maintenance of patterns was tested.
# Cell patterns were formed as described above. Arrays were imaged at 0, 24, and 48 hrs immediately after addition of 1 μM calcein AM live cell stain (Life Technologies) in PBS. Media additives were diluted directly into culture media at the indicated concentration. Cell proliferation (P) was calculated per block (4 wells per block) as the ratio of cells at time of imaging to the number of starting cells at time zero. Cell migration (M) was calculated as Nfull×P−Nwell, where Nfull is the number of cells per field of view, P is the proliferation rate, and Nwell is the number of cells per well.
# ACH2 cells = assay: virus production by ACH2 cells in micro-wells detected by WAP; type: cell-based; conditions: ACH2 cells stimulated vs unstimulated, all loading densities, FIG. 6(b)
# Procedure: FIGS. 6(a)-(b) illustrate one embodiment of detection/analysis of latently infected T cells using WAP. That is, as shown, WAP can be applied to study functional characteristics, such as virus production, of cells loaded into micro-wells. ACH2 cells produce HIV virus when stimulated with the cytokine TNFα. […] These cells produce virus when stimulated with TNFα, which can be contained in the media. The target cell coated slide is incubated with the array, removed, then allowed to incubate while biological signal develops (e.g. GFP accumulation). […] The median percent infection is higher in the presence of TNFα for each ACH2 cell count. In addition to assaying viral production capability, functional characteristics of virus producing cells in the micro-wells, such as gene expression, surface marker expression, or secretion of biomolecules of interest could provide functional information about virally infected cells.
# CCR5 = CCR5 (Homo sapiens, UniProt P51681); conditions: lowers the effective CCR5 concentration; cited from earlier work
# CCR5, sequence (P51681 whole entry): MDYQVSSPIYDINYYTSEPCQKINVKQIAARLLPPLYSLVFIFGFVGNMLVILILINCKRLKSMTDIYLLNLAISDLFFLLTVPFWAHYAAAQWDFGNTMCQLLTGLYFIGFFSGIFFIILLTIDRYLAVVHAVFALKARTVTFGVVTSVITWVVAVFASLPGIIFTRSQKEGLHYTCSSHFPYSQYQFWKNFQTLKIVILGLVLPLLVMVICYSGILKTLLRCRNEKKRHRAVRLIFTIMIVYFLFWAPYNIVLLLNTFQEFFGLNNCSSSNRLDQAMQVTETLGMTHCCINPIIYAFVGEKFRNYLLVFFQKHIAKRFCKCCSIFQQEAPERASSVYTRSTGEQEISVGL
compound,measurement,setting,value
CS(=O)(=O)c1cccc(CNc2nc(Nc3ccc4c(c3)CCC(=O)N4)ncc2C(F)(F)F)c1 [PF-573228],effect on cell motility and adhesion,cell motility,inhibit cell motility but not adhesion
same,individual pattern maintenance for the time required for signal development,GHOST cells; 10 μM,resulted in individual pattern maintenance
same,proliferation of patterned cells (Nt/Nto per block),"GHOST cells; FIG. 15(b), 24 or 48 hours",reduced proliferation of patterned cells
same,migration of patterned cells (number of cells migrating out of patterns),"GHOST cells; FIG. 15(c), p<0.0001 Mann-Whitney U test",reduced migration of patterned cells
same,loss of cell patterns,"GHOST cells; added to media, 0 hr vs 24 hrs post patterning, FIG. 9(f)",prevents loss of cell patterns
TNFα,median percent infection of patterned cells,ACH2 cells,greater median percent infection
C[C@@H](N)[C@H]1CC[C@H](C(=O)Nc2ccncc2)CC1 [Y-27632],effect on cell motility and adhesion,cell motility,inhibit cell motility but not adhesion
Cc1ccc(-c2ccc3c(c2)C=C(C(=O)Nc2ccc(C[N+](C)(C)C4CCOCC4)cc2)CCC3)cc1.[Cl-] [TAK779],effect on HIV-1 entry,CCR5,slows HIV-1 entry
